Experimental data published in paper PMC7297817, “Pharmacological Characterization of a Betaine/GABA Transporter 1 (BGT1) Inhibitor Displaying an Unusual Biphasic Inhibition Profile and Anti-seizure Effects” (Neurochemical Research, 2020).
Read-outs that look alike come from different tables or passages of the source.

How the values were obtained:
M2 = target: T1, M2 (Homo sapiens, UniProt P08172); assay: NIMH PDSP radioligand binding, M2
T1 construct: purchased NIMH Psychoactive Drug Screening Program (PDSP)
T1 sequence (P08172 whole entry): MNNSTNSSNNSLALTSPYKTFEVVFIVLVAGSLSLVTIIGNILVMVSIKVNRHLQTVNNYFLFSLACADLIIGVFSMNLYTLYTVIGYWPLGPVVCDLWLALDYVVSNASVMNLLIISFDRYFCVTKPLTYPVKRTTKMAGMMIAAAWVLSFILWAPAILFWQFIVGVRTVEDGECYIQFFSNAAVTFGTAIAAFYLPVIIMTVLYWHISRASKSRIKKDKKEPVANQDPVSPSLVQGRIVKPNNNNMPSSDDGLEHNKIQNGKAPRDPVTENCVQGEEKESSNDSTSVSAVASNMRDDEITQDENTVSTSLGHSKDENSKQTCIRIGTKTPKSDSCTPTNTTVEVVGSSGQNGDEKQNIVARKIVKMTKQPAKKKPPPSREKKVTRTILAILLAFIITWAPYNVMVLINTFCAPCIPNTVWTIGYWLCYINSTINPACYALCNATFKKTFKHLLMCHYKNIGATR

mice = assay: Rotarod test of minimal motor impairment; assay type: in vivo, mouse
Procedure: (§1) The rotarod test was performed just prior to the three seizure tests.
(§2) Probit analysis was used to analyse the efficacy and tolerability results obtained from the dose–response studies and to calculate the median effective (ED50) dose, the median toxic dose (TD50), and the 95% confidence interval.

[1] = Rotarod test of minimal motor impairment; assay type: in vivo, mouse; settings: mouse, in vivo, ip; CF-1 mice of the MES test; probit analysis
Procedure: as §1, §2

hBGT1 Y453A = target: T2, hBGT1 Y453A (Homo sapiens, UniProt P48065, Y453A); assay: [3H]GABA uptake at hBGT1 Y453A mutant in tsA201 cells; assay type: cell-based; settings: data not shown
T2 construct: host or cells: tsA201 (transient)
Procedure: (§3) The HEK-293 and Flp-In CHO cell lines stably expressing mouse (m) and human (h) GATs, respectively, have been described previously and were cultured accordingly. The tsA201 cell line was used for transient expression while the MDCK II cell line express BGT1 endogenously. Both cell lines were cultured as described. tsA201 cells were transfected with DNA constructs (8 μg per 10 cm dish if not otherwise mentioned) using 40 μL PolyFect transfection reagent according to the manufacturer’s protocol (Qiagen, Venlo, Netherlands). The DNA constructs encoding hBGT1, hGAT1-3 [36], the mutated constructs hBGT1 Q299 and hGAT3 L314Q described previously, and hBGT Y453A were synthesized and sequence validated by Genscript (NJ, USA).
(§4) The [^3H]GABA competition uptake assay was performed as previously described. A minor change, however, was introduced for uptake in MDCK II cells, in which 100 nM [^3H]GABA was used for a 15 min incubation period at 37 °C instead of 30 nM [^3H]GABA and 3 min incubation. Studies related to the inhibition curves with GABA and BPDBA at hBGT1 were obtained both with and without the presence of 10 μM ATP during the [^3H]GABA uptake assay.
(§5) The [^3H]GABA uptake data was normalized to the percentage of total uptake in the individual experiments in the presence of the lowest compound concentration or no compound present. […]

Alpha1B = target: T3, Alpha1B (Homo sapiens, UniProt P35368); assay: NIMH PDSP radioligand binding, Alpha1B; settings: radioligand [3H]prazosine, n=4
T3 construct: purchased NIMH Psychoactive Drug Screening Program (PDSP)
T3 sequence (P35368 whole entry): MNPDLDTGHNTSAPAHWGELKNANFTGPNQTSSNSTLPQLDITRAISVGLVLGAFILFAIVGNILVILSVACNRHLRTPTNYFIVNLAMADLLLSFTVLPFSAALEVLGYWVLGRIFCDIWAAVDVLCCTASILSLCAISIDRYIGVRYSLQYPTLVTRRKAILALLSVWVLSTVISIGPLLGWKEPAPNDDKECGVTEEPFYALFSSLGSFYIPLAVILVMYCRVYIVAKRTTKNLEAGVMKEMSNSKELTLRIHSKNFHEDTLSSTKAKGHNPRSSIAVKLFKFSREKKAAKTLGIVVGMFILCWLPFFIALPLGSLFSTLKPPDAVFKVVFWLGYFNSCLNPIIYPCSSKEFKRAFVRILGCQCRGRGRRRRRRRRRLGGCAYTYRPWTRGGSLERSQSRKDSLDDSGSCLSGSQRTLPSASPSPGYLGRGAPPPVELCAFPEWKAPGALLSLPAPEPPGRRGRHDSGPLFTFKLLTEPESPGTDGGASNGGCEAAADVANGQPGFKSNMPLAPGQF

D1 = target: T4, D1 (Homo sapiens, UniProt P21728); assay: NIMH PDSP radioligand binding, D1; settings: radioligand [3H]SCH23390, n=4
T4 construct: purchased NIMH Psychoactive Drug Screening Program (PDSP)
T4 sequence (P21728 whole entry): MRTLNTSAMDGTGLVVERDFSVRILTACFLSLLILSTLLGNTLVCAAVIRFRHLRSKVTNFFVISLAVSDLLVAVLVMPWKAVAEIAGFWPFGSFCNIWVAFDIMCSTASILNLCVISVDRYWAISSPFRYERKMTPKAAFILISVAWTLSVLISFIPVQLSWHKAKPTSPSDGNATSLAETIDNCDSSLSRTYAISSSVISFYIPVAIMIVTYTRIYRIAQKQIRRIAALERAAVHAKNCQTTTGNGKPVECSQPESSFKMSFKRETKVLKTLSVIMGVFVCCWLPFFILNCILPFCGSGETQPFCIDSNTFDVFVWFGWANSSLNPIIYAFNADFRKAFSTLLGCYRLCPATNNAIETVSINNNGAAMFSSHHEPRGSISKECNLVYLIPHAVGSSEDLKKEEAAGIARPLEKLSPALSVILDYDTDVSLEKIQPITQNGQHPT

5-HT7 = target: T5, 5-HT7 (Homo sapiens, UniProt P34969); assay: NIMH PDSP radioligand binding, 5-HT7; settings: radioligand [3H]LSD, n=4
T5 construct: purchased NIMH Psychoactive Drug Screening Program (PDSP)
T5 sequence (P34969 whole entry): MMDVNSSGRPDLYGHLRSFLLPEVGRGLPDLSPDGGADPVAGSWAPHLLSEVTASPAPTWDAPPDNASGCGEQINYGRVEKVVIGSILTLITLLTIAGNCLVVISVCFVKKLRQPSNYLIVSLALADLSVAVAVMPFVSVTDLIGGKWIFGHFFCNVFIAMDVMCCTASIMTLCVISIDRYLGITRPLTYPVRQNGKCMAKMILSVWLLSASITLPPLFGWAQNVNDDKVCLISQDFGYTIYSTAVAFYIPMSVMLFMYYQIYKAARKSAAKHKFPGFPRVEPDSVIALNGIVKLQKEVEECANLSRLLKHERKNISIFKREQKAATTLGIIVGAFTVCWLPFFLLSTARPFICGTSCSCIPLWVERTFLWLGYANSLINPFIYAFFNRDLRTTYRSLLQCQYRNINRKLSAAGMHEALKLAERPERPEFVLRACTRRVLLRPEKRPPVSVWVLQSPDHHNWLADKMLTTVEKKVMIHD

Alpha1D = target: T6, Alpha1D (Homo sapiens, UniProt P25100); assay: NIMH PDSP radioligand binding, Alpha1D; settings: radioligand [3H]prazosine, n=4
T6 construct: purchased NIMH Psychoactive Drug Screening Program (PDSP)
T6 sequence (P25100 whole entry): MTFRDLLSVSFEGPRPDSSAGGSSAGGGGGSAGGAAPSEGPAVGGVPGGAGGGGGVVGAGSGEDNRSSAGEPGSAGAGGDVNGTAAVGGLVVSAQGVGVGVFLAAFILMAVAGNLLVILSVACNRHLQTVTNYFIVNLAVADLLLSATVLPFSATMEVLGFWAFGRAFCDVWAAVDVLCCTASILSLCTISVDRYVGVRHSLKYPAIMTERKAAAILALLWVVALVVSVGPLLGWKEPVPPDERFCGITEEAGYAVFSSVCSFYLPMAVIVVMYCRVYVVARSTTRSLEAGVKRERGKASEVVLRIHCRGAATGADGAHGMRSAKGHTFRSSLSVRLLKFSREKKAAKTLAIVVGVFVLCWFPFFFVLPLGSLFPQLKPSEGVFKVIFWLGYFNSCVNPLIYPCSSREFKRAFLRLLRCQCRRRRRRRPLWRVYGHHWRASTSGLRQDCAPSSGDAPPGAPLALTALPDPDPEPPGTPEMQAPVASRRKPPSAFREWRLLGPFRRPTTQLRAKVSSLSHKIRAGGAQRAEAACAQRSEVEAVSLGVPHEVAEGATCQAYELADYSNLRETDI

hGAT3 = target: T7, hGAT3 (Homo sapiens, UniProt P48066); assay: [3H]GABA uptake at hGAT3 stably expressed in CHO cells; assay type: cell-based; settings: N=3
T7 construct: expressed in transfected cells
T7 sequence (P48066 1-632): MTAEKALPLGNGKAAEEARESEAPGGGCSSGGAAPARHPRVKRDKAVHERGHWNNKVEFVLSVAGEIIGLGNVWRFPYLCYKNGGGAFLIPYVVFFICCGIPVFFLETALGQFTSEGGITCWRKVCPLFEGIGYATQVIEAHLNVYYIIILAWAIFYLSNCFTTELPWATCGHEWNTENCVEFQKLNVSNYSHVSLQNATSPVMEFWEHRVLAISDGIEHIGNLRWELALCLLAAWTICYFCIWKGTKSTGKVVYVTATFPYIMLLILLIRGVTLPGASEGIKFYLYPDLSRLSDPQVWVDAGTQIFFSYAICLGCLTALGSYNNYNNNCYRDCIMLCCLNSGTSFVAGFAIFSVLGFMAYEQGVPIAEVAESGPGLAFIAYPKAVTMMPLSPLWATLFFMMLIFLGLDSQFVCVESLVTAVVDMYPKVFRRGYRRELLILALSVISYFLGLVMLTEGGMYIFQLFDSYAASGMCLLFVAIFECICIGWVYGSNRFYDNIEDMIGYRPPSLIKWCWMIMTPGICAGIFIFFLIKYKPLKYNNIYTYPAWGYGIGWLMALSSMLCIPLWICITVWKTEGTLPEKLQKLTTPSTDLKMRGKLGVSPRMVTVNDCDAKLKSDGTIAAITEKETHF
Procedure: as §3, §4
The [^3H]GABA uptake data was normalized to the percentage of total uptake in the individual experiments in the presence of the lowest compound concentration or no compound present. Data presented is the pooled data of at least three independent experiments with three technical replicates. Concentration–response curves (CRCs) were fitted with GraphPad Prism (version 8.2.1, Yosemite, GraphPad Software, San Diego, CA, USA) by non-linear regression to the sigmoidal concentration response model: Y=Bottom+(Top-Bottom)/1+10^LogIC50-X∗nH where Top is the Top plateau, Bottom is the Bottom plateau, X is the logarithm of the concentration of the compound, LogIC50 is the concentration giving a response halfway between Top and Bottom,and nH is the Hill slope.
The best fit for CRCs obtained with the [^3H]GABA uptake assay was identified by the extra-sum-of-squares F test (for convenience referred to as F test).

DAT = target: T8, DAT (Homo sapiens, UniProt Q01959); assay: NIMH PDSP radioligand binding, DAT; settings: radioligand [3H]WIN35428, n=4
T8 construct: purchased NIMH Psychoactive Drug Screening Program (PDSP)

Alpha2B = target: T9, Alpha2B (Homo sapiens, UniProt P18089); assay: NIMH PDSP radioligand binding, Alpha2B; settings: radioligand [3H]rauwolscine, n=4
T9 construct: purchased NIMH Psychoactive Drug Screening Program (PDSP)
T9 sequence (P18089 whole entry): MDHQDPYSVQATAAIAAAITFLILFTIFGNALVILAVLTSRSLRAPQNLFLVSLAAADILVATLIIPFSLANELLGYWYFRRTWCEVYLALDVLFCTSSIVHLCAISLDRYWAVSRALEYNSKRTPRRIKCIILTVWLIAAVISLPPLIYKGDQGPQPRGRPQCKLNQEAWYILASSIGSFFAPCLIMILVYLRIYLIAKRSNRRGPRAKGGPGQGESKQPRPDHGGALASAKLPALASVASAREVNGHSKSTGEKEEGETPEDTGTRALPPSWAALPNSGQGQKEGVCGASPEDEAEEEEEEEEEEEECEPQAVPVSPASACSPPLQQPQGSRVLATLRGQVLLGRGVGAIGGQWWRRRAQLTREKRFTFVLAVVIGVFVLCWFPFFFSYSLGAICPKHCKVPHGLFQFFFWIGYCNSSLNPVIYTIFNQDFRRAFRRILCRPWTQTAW

mGAT2 = target: T10, mGAT2 (Mus musculus, UniProt P31649); assay: [3H]GABA uptake at mGAT2 stably expressed in HEK-293 cells; assay type: cell-based
T10 construct: expressed in transfected cells
T10 sequence (P31649 whole entry): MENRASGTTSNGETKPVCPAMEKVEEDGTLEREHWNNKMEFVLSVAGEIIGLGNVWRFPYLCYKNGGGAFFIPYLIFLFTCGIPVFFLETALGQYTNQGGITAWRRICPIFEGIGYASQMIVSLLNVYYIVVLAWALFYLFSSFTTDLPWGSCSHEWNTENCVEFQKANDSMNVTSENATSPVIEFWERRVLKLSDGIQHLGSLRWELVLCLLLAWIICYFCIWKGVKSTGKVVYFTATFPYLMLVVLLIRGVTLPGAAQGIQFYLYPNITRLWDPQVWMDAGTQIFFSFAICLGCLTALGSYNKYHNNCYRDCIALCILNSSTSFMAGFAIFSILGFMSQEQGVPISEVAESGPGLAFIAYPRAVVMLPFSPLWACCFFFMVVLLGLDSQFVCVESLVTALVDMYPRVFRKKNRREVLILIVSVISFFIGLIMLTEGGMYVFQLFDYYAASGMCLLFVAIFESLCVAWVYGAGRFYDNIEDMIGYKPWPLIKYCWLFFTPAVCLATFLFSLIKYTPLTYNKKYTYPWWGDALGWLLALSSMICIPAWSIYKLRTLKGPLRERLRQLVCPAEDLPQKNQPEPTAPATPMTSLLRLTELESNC
Procedure: as §3, §4, §5

5-HT3 = target: T11, 5-HT3 (Homo sapiens, UniProt P46098); assay: NIMH PDSP radioligand binding, 5-HT3; settings: radioligand [3H]LY278584, n=4
T11 construct: purchased NIMH Psychoactive Drug Screening Program (PDSP)
T11 sequence (P46098 24-478): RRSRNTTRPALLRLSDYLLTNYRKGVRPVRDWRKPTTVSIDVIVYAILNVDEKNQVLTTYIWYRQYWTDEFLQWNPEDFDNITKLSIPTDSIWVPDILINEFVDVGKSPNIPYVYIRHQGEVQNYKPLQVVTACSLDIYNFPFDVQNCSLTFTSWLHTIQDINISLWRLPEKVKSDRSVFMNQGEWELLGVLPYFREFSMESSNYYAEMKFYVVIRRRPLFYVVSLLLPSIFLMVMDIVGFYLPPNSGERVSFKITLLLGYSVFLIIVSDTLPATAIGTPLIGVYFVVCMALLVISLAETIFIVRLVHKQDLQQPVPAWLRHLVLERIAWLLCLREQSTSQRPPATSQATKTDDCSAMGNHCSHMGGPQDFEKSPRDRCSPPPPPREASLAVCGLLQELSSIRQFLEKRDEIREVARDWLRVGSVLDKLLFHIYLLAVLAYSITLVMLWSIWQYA

Sigma2 = assay: NIMH PDSP radioligand binding, Sigma2; settings: 10 μM; radioligand [3H]DTG; n=4
Procedure: IC50 values in μM (Ki μM)^a. The targets in bold were inhibited by >35% at 10 μM.

5-HT2B = target: T12, 5-HT2B (Homo sapiens, UniProt P41595); assay: NIMH PDSP radioligand binding, 5-HT2B; settings: radioligand [3H]LSD
T12 construct: NIMH PDSP (screening service)
T12 sequence (P41595 whole entry, species assumed): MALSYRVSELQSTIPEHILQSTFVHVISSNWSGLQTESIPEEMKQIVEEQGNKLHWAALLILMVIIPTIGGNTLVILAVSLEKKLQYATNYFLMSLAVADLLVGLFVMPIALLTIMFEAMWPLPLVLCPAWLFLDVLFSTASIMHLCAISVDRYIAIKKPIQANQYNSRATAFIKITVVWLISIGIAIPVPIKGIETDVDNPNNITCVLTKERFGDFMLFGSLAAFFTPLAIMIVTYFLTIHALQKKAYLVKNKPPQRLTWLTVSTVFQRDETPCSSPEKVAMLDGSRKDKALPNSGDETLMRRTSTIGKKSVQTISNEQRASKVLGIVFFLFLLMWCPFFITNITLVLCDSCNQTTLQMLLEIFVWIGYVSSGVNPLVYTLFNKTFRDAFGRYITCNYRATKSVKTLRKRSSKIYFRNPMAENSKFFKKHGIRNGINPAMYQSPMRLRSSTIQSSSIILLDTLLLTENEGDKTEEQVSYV

Cc1ccsc1C(=CCCN(C)[C@H]1CCCC[C@H]1C(=O)O)c1sccc1C [SBV2-114, (1R,2S)-2-((4,4-bis(3-methylthiophen-2-yl)but-3-en-yl)(methyl)amino)cyclohexanecarboxylic acid]
inhibition at 10 µM (M2): -1.9%
#Motor impairment/#Tested (mice; CF-1 mice, prior to MES, 50 mg/kg i.p., 15 min): 0/3
#Motor impairment/#Tested (mice; CF-1 mice, prior to MES, 100 mg/kg i.p., 15 min): 0/4
#Motor impairment/#Tested (mice; CF-1 mice, prior to MES, 125 mg/kg i.p., 15 min): 0/7
#Motor impairment/#Tested (mice; CF-1 mice, prior to MES, 150 mg/kg i.p., 15 min): 2/6
#Motor impairment/#Tested (mice; CF-1 mice, prior to MES, 200 mg/kg i.p., 15 min): 3/4
#Motor impairment/#Tested (mice; CF-1 mice, prior to s.c.PTZ, 150 mg/kg i.p., 30 min): 0/8
#Motor impairment/#Tested (mice; Frings mice, 50 mg/kg i.p., 15 min): 0/3
#Motor impairment/#Tested (mice; Frings mice, 50 mg/kg i.p., 30 min): 0/3
#Motor impairment/#Tested (mice; Frings mice, 50 mg/kg i.p., 60 min): 0/3
#Motor impairment/#Tested (mice; Frings mice, 50 mg/kg i.p., 120 min): 0/3
#Motor impairment/#Tested (mice; Frings mice, 120 mg/kg i.p., 30 min): 0/4
#Motor impairment/#Tested (mice; Frings mice, 120 mg/kg i.p., 60 min): 0/4
#Motor impairment/#Tested (mice; Frings mice, 120 mg/kg i.p., 120 min): 0/4
#Motor impairment/#Tested (mice; Frings mice, 120 mg/kg i.p., 240 min): 0/4
TD50 at 15 min [1]: 163 mg/kg
activity at hBGT1 Y453A (hBGT1 Y453A): did not show the expected decrease in activity
inhibition at 10 µM (Alpha1B): 1.9%
inhibition at 10 µM (D1): 14%
inhibition at 10 µM (5-HT7): 14.1%
inhibition at 10 µM (Alpha1D): -4.7%
Frac (hGAT3; biphasic fit, CHO): 0.09
IC50 (hGAT3; biphasic fit, CHO, read-out: IC50, high affinity component): 2.09 µM
Fit (hGAT3; preferred model): Biphasic
IC50 (hGAT3; read-out: IC50, low affinity component, biphasic fit, CHO): 603 µM
inhibition at 10 µM (DAT): 36.9%
inhibition at 10 µM (Alpha2B): 24.9%
IC50 (mGAT2): > 1000 µM
Fit (mGAT2; preferred model, N=3): Ambiguous
inhibition at 10 µM (5-HT3): -3%
% inhibition (Sigma2): 48.3%
inhibition at 10 µM (5-HT2B; 10 μM, n=4): 96.8%
Ki (5-HT2B; full curve): 0.42 µM
